From the supplement of paper PMC10307832

Columns and labels:
Assay in all cases: relative viability (nuclei count vs DMSO), 5 days (fraction); higher = more cells survive
GSK126 + Phenformin = compound: CC[C@H](C)N1C=C(C2=C(C=C(C=C21)C3=CN=C(C=C3)N4CCNCC4)C(=O)NCC5=C(C=C(NC5=O)C)C)C [GSK126] + N=C(N)NC(=N)NCCc1ccccc1 [Phenformin] (partner 250 µM)
Summary of the method: (§1)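 Lung cancer cell lines were pin-tool dosed in 1536-well plates on the day after seeding, with either a lone drug or a fixed anchor-drug dose plus five library-drug doses (not always all listed) in √10 steps. Nuclei were counted on 4× images after 5 days. Relative viability is the ratio of treated-well to vehicle-well nuclei counts, with each value a median of duplicate plates.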

GSK126 + Olaparib = compound: CC[C@H](C)N1C=C(C2=C(C=C(C=C21)C3=CN=C(C=C3)N4CCNCC4)C(=O)NCC5=C(C=C(NC5=O)C)C)C [GSK126] + O=C(c1cc(Cc2n[nH]c(=O)c3ccccc23)ccc1F)N1CCN(C(=O)C2CC2)CC1 [Olaparib] (partner 8 µM)
Summary of the method: as §1

Carboplatin + Pictilisib = compound: C1CC(C1)(C(=O)O)C(=O)O.[NH2-].[NH2-].[Pt+2] [Carboplatin] + CS(=O)(=O)N1CCN(Cc2cc3nc(-c4cccc5[nH]ncc45)nc(N4CCOCC4)c3s2)CC1 [Pictilisib] (partner 1 µM)
Summary of the method: as §1

MLN4924 + Crizotinib = compound: NS(=O)(=O)OC[C@@H]1C[C@@H](n2ccc3c(N[C@H]4CCc5ccccc54)ncnc32)C[C@@H]1O [MLN4924] + C[C@@H](Oc1cc(-c2cnn(C3CCNCC3)c2)cnc1N)c1c(Cl)ccc(F)c1Cl [Crizotinib] (partner 1 µM)
Summary of the method: as §1

Cell Line	relative viability (GSK126 + Phenformin; first compound 0.08 µM)	relative viability (GSK126 + Phenformin; first compound 0.253 µM)	relative viability (GSK126 + Phenformin; first compound 0.8 µM)	relative viability (GSK126 + Phenformin; first compound 2.53 µM)	relative viability (GSK126 + Phenformin; first compound 8 µM)	relative viability (GSK126 + Olaparib; first compound 0.08 µM)	relative viability (GSK126 + Olaparib; first compound 0.253 µM)	relative viability (GSK126 + Olaparib; first compound 0.8 µM)	relative viability (GSK126 + Olaparib; first compound 2.53 µM)	relative viability (GSK126 + Olaparib; first compound 8 µM)	relative viability (Carboplatin + Pictilisib; first compound 0.08 µM)	relative viability (Carboplatin + Pictilisib; first compound 0.253 µM)	relative viability (Carboplatin + Pictilisib; first compound 0.8 µM)	relative viability (Carboplatin + Pictilisib; first compound 2.53 µM)	relative viability (Carboplatin + Pictilisib; first compound 8 µM)	relative viability (MLN4924 + Crizotinib; first compound 0.04 µM)	relative viability (MLN4924 + Crizotinib; first compound 0.1265 µM)	relative viability (MLN4924 + Crizotinib; first compound 0.4 µM)	relative viability (MLN4924 + Crizotinib; first compound 1.265 µM)	relative viability (MLN4924 + Crizotinib; first compound 4 µM)
201T	0.478	0.46	0.443	0.437	0.387	0.867	0.845	0.831	0.906	0.886	0.69	0.667	0.736	0.684	0.634	1.05	0.994	0.984	0.401	0.391
A549	0.245	0.169	0.126	0.131	0.114	0.361	0.297	0.336	0.333	0.368	0.579	0.51	0.527	0.459	0.125	0.772	0.634	0.416	0.0489	0.0552
A-427	0.362	0.34	0.311	0.346	0.258	0.704	0.724	0.701	0.765	0.837	0.773	0.768	0.629	0.694	0.732	0.4	0.239	0.243	0.149	0.182
ABC-1	0.243	0.262	0.268	0.244	0.242	0.573	0.698	0.869	0.691	0.659	0.749	0.783	0.782	0.68	0.535	0.901	0.29	0.132	0.0913	0.223
BEN	0.268	0.243	0.234	0.232	0.217	1.23	1.01	1.16	1.13	1.12	0.69	0.587	0.515	0.525	0.609	0.73	0.38	0.272	0.172	0.17
CAL-12T	0.617	0.568	0.572	0.519	0.63	0.809	0.713	0.758	0.829	0.643	0.484	0.398	0.345	0.376	0.486	0.638	0.665	0.284	0.248	0.134
COR-L23	0.504	0.445	0.437	0.435	0.404	0.422	0.33	0.33	0.354	0.387	0.933	0.782	0.735	0.512	0.253	0.588	0.567	0.431	0.136	0.0871
COR-L 105	0.5	0.547	0.596	0.529	0.513	0.586	0.628	0.732	0.583	0.631	0.403	0.391	0.422	0.427	0.34	0.802	0.472	0.344	0.194	0.222
Calu-6	–	–	–	–	–	0.604	0.664	–	0.612	0.577	0.914	0.906	0.823	0.739	0.486	0.677	0.426	0.197	0.0922	0.0977
ChaGo-K-1	0.541	0.535	0.446	0.415	0.431	0.419	0.419	0.432	0.5	0.431	1.01	0.713	0.615	0.463	0.376	0.908	0.595	0.451	0.325	0.324
EBC-1	–	–	–	–	–	0.743	0.711	0.702	0.684	0.615	0.392	0.344	0.363	0.365	0.358	0.167	0.189	0.215	0.149	0.156
EKVX	0.229	0.252	0.246	0.218	0.231	0.929	1	0.808	1.11	0.816	0.452	0.422	0.413	0.381	0.387	0.865	0.654	0.461	0.226	0.133
EMC-BAC-2	0.606	0.528	0.505	0.483	0.482	0.512	0.436	0.502	0.436	0.47	0.48	0.538	0.476	0.56	0.466	0.601	0.283	0.242	0.164	0.167
EPLC-272H	0.318	0.264	0.361	0.34	0.301	0.818	0.749	0.697	0.806	0.804	0.373	0.305	0.313	0.322	0.349	0.812	0.603	0.0795	0.136	0.201
H3255	0.354	0.382	0.352	0.341	0.368	0.571	0.553	0.517	0.582	0.57	0.54	0.504	0.375	0.407	0.425	0.77	0.668	0.341	0.242	0.247
HARA	0.607	0.434	0.476	0.367	0.38	0.994	0.911	0.934	0.861	0.657	0.424	0.341	0.387	0.382	0.391	0.752	0.401	0.349	0.0875	0.0794
HCC-15	0.513	0.419	0.457	0.422	0.442	0.749	0.776	0.686	0.608	0.745	0.781	0.715	0.749	0.702	0.498	0.505	0.2	0.227	0.0834	0.0819
HCC-44	0.23	0.194	0.186	0.192	0.243	1.01	1.02	1.03	0.92	1	0.577	0.552	0.666	0.554	0.592	0.65	0.527	0.189	0.168	0.155
HCC-78	0.816	0.773	0.604	0.646	0.692	0.742	0.822	0.807	0.822	0.617	0.213	0.228	0.194	0.217	0.21	0.394	0.451	0.739	0.159	0.172

Cell Line	relative viability (GSK126 + Phenformin; first compound 0.08 µM)	relative viability (GSK126 + Phenformin; first compound 0.253 µM)	relative viability (GSK126 + Phenformin; first compound 0.8 µM)	relative viability (GSK126 + Phenformin; first compound 2.53 µM)	relative viability (GSK126 + Phenformin; first compound 8 µM)	relative viability (GSK126 + Olaparib; first compound 0.08 µM)	relative viability (GSK126 + Olaparib; first compound 0.253 µM)	relative viability (GSK126 + Olaparib; first compound 0.8 µM)	relative viability (GSK126 + Olaparib; first compound 2.53 µM)	relative viability (GSK126 + Olaparib; first compound 8 µM)	relative viability (Carboplatin + Pictilisib; first compound 0.08 µM)	relative viability (Carboplatin + Pictilisib; first compound 0.253 µM)	relative viability (Carboplatin + Pictilisib; first compound 0.8 µM)	relative viability (Carboplatin + Pictilisib; first compound 2.53 µM)	relative viability (Carboplatin + Pictilisib; first compound 8 µM)	relative viability (MLN4924 + Crizotinib; first compound 0.04 µM)	relative viability (MLN4924 + Crizotinib; first compound 0.1265 µM)	relative viability (MLN4924 + Crizotinib; first compound 0.4 µM)	relative viability (MLN4924 + Crizotinib; first compound 1.265 µM)	relative viability (MLN4924 + Crizotinib; first compound 4 µM)
HCC-366	0.687	0.641	0.574	0.644	0.543	0.451	0.386	0.366	0.396	0.342	0.138	0.128	0.0961	0.158	0.106	0.603	0.66	0.797	0.211	0.0183
HCC-827	0.408	0.385	0.441	0.388	0.411	0.725	0.642	0.617	0.726	0.601	0.886	0.923	0.79	0.846	0.897	0.836	0.658	0.61	0.247	0.178
HOP-62	0.672	0.68	0.672	0.642	0.68	0.447	0.506	0.414	0.455	0.428	0.527	0.747	0.663	0.64	0.65	0.701	0.261	0.167	0.0427	0.0866
IA-LM	–	–	–	–	–	1.03	0.832	0.99	0.759	0.75	0.404	0.373	0.353	0.261	0.242	0.314	0.211	0.134	0.0572	0.0763
LC-2-ad	0.627	0.634	0.583	0.56	0.642	0.703	0.698	0.67	0.712	0.357	0.669	0.477	0.436	0.447	0.399	0.517	0.419	0.341	0.264	0.156
LCLC-97TM1	0.359	0.459	0.455	0.389	0.374	0.494	0.596	0.413	0.507	0.445	0.209	–	0.233	0.194	0.18	0.27	0.202	0.151	0.123	0.0984
LCLC-103H	0.331	0.383	0.377	0.344	0.39	0.837	0.791	0.774	0.792	0.795	0.65	0.597	0.613	0.646	0.611	1.13	1.09	0.713	0.289	0.321
LK-2	0.658	0.522	0.454	0.334	0.352	0.904	0.71	0.727	0.859	0.689	0.707	0.643	0.462	0.401	0.613	0.222	0.319	0.321	0.27	0.236
NCI-H522	0.62	0.671	0.662	0.743	0.601	0.61	0.599	0.639	0.611	0.699	–	–	–	–	–	–	–	–	–	–
NCI-H1299	–	–	–	–	–	1	0.93	0.922	0.921	0.976	0.785	0.663	0.62	0.739	0.617	0.875	0.825	0.4	0.252	0.246
NCI-H1395	0.487	0.446	0.43	0.506	0.474	0.468	0.465	0.438	0.456	0.414	0.722	0.548	0.854	0.548	0.513	–	–	–	–	–
NCI-H1563	0.665	0.676	0.654	0.596	0.646	–	–	–	–	–	0.733	0.664	0.639	0.629	0.657	1.1	1.14	1.01	0.579	0.552
NCI-H1623	0.631	0.594	0.602	0.589	0.537	–	–	–	–	–	–	–	–	–	–	–	–	–	–	–
NCI-H1648	–	–	–	–	–	1.01	1.22	0.774	1.1	0.908	–	–	–	–	–	–	–	–	–	–
NCI-H1703	–	–	–	–	–	0.576	0.351	0.694	0.455	0.492	0.261	0.229	0.231	0.251	0.245	0.214	0.159	0.187	0.109	0.0907
NCI-H1793	0.407	0.458	0.384	0.274	0.235	0.931	0.8	0.732	1.24	0.989	0.396	0.345	0.316	0.382	0.329	–	–	–	–	–
NCI-H2342	0.942	0.566	0.558	0.525	0.759	0.447	0.501	0.392	0.424	0.469	–	–	–	–	–	–	–	–	–	–
SW 900	0.637	0.479	0.721	0.502	0.576	0.909	0.751	0.866	0.885	0.888	–	–	–	–	–	–	–	–	–	–
